How the values were obtained:
Assay type in all cases: in vivo
[1] = system: Blumeria graminis f sp. tritici; assay: Blumeria test (wheat)/protective; details: protective, 1000 ppm active compound, evaluation 7 days after inoculation
Protocol: Blumeria Test (Wheat)/Protective [table] To produce a suitable preparation of active compound, 1 part by weight of active compound is mixed with the stated amounts of solvent and emulsifier, and the concentrate is diluted with water to the desired concentration. To test for protective activity, young plants are sprayed with the active compound preparation at the stated application rate. After the spray coating has dried on, the plants are dusted with spores of Blumeria graminis f sp. tritici.

Plasmopara viticola = assay: Plasmopara test (grapevine)/protective; details: protective, 100 ppm active compound, evaluation 6 days after inoculation
Protocol: Plasmopara Test (Grapevine)/Protective [table] To produce a suitable preparation of active compound, 1 part by weight of active compound is mixed with the stated amounts of solvent and emulsifier, and the concentrate is diluted with water to the desired concentration. To test for protective activity, young plants are sprayed with the active compound preparation at the stated application rate. After the spray coating has dried on, the plants are inoculated with an aqueous spore suspension of Plasmopara viticola and then remain in an incubation cabin at about 20° C. and 100% relative atmospheric humidity for 1 day. The plants are then placed in a greenhouse at about 21° C. and about 90% atmospheric humidity for 4 days. The plants are then moistened and placed in an incubation cabin for 1 day.

Venturia inaegualis = assay: Venturia test (apple)/protective; details: protective, 100 ppm active compound, evaluation 10 days after inoculation
Protocol: Venturia Test (Apple)/Protective [table] To produce a suitable preparation of active compound, 1 part by weight of active compound is mixed with the stated amounts of solvent and emulsifier, and the concentrate is diluted with water to the desired concentration. To test for protective activity, young plants are sprayed with the active compound preparation at the stated application rate. After the spray coating has dried on, the plants are inoculated with an aqueous conidia suspension of the apple scab pathogen Venturia inaegualis and then remain in an incubation cabin at about […] and 100% relative atmospheric humidity for 1 day. The plants are then placed in the greenhouse at about 21° C. and a relative atmospheric humidity of about 90%.

Alternaria solani = assay: Alternaria test (tomato)/protective; details: protective, 500 ppm active compound, evaluation 7 days after inoculation
Protocol: Alternaria Test (Tomato)/Protective [table] To produce a suitable preparation of active compound, 1 part by weight of active compound is mixed with the stated amounts of solvent and emulsifier, and the concentrate is diluted with water to the desired concentration. To test for protective activity, young tomato plants are sprayed with the active compound preparation at the stated application rate. 1 day after the treatment, the plants are inoculated with a spore suspension of Alternaria solani and then remain at 100% relative humidity and 20° C. for 24 h. The plants then remain at 96% relative atmospheric humidity and a temperature of 20° C.

Phytophthora infestans = details: protective, 100 ppm active compound, evaluation 3 days after inoculation

## CC1=NOC(=O)/C1=C\c1ccco1 [A-8]
[1]
  efficacy: 29%
Plasmopara viticola
  efficacy: 28%
Venturia inaegualis
  efficacy: 6%
Alternaria solani
  efficacy: 0%
Phytophthora infestans
  efficacy: 0%

From patent US20120100989A1, “3-Aryl-4-(2-thienylmethylene)isoxazol-5(4H)-ones as Fungicides” (Bayer CropScience AG, priority 2010, published 2012)
